Where a SMILES comes first, the peptide text is derived from it. [ ]: non-standard residue; d: D form. The star is where a group is joined. dHpg = N[C@@H](C(=O)O)c1ccc(O)cc1; Boc = CC(C)(C)OC(=O)*
Target: Tissue-type plasminogen activator (Homo sapiens) (UniProt P00750)
Assay: Inhibitory activity against tissue-type plasminogen activator

Chain of Tissue-type plasminogen activator (Homo sapiens) (P00750 whole entry, looked up): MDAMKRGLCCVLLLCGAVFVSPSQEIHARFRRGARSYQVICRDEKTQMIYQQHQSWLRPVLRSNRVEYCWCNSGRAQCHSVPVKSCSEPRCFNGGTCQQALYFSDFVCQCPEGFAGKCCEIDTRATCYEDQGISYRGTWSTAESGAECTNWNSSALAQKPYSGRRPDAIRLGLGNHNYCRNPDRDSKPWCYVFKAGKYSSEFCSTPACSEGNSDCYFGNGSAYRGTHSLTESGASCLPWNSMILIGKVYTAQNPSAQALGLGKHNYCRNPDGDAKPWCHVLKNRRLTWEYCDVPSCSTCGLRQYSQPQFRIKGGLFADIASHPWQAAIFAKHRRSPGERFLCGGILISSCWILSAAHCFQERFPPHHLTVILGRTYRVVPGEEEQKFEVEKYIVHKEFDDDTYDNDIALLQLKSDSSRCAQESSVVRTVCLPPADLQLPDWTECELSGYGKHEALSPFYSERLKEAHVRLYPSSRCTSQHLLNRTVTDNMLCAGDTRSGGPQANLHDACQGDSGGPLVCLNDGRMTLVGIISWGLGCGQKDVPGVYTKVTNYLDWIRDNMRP

Q: `N=C(N)NCCC[C@@H](C=O)NC(=O)[C@@H]1CCCN1C(=O)C1CCc2ccccc2N1` (stereo not given in full) [1-(1,2,3,4-Tetrahydro-quinoline-2-carbonyl)-pyrrolidine-2-carboxylic acid (1-formyl-4-guanidino-butyl)-amide] was tested. Which IC50 did it give?
A: Its IC50 is 660 µM.

Q: For `CC(C)(C)OC(=O)N[C@@H](C(=O)N1CCC[C@H]1C(=O)N[C@H](C=O)CCCN=C(N)N)c1ccc(O)cc1` [[2-[2-(1-Formyl-4-guanidino-butylcarbamoyl)-pyrrolidin-1-yl]-1-(4-hydroxy-phenyl)-2-oxo-ethyl]-carbamic acid tert-butyl ester] (Boc-[dHpg]-Pro-Arg-aldehyde), which IC50 is on record?
A: The IC50 was 16 µM.

Target: Tissue-type plasminogen activator (Homo sapiens) (UniProt P00750)
Assay: Compound was tested in vitro for inhibitory activity against t-PA (tissue plasminogen activator)

Q: With `CO[C@H](C(=O)N1CCC[C@H]1C(=O)NC(C=O)CCCNC(=N)N)c1ccccc1` (stereo not given in full) [1-(2-Methoxy-2-phenyl-acetyl)-pyrrolidine-2-carboxylic acid (1-formyl-4-guanidino-butyl)-amide] as the compound, how does the IC50 read?
A: The IC50 was 860 µM.

Q: `CN[C@@H](C(=O)N1CCC[C@H]1C(=O)N[C@H](C=O)CCCNC(=N)N)c1ccccc1` [(S)-1-((R)-2-Methylamino-2-phenyl-acetyl)-pyrrolidine-2-carboxylic acid ((S)-1-formyl-4-guanidino-butyl)-amide] was tested. Which IC50 did it give?
A: Its IC50 is 42 µM.

Q: `CC(C)(C)OC(=O)NC(C(=O)N1CCC[C@H]1C(=O)NC(C=O)CCCNC(=N)N)c1cccc(C(F)(F)F)c1` (stereo not given in full) [[2-[2-(1-Formyl-4-guanidino-butylcarbamoyl)-pyrrolidin-1-yl]-2-oxo-1-(3-trifluoromethyl-phenyl)-ethyl]-carbamic acid tert-butyl ester] was tested. Which IC50 did it give?
A: Its IC50 is 15 µM.

Q: How did the IC50 turn out when `CC(C)(C)OC(=O)NC(C(=O)N1CCC[C@H]1C(=O)NC(C=O)CCCNC(=N)N)c1ccc(Cl)c(Cl)c1` (stereo not given in full) [{1-(3,4-Dichloro-phenyl)-2-[2-(1-formyl-4-guanidino-butylcarbamoyl)-pyrrolidin-1-yl]-2-oxo-ethyl}-carbamic acid tert-butyl ester] was run?
A: The IC50 was 31 µM.

Q: For `CC(C)(C)OC(=O)N[C@@H](C(=O)N1CCC[C@H]1C(=O)N[C@H](C=O)CCCN=C(N)N)c1ccc(F)cc1` [{1-(4-Fluoro-phenyl)-2-[2-(1-formyl-4-guanidino-butylcarbamoyl)-pyrrolidin-1-yl]-2-oxo-ethyl}-carbamic acid tert-butyl ester], which IC50 is on record?
A: Its IC50 is 18 µM.

Q: Which IC50 does the source give for `CC(C)(C)OC(=O)N[C@H](C(=O)N1CCC[C@H]1C(=O)N[C@H](C=O)CCCN=C(N)N)c1ccc(F)cc1` [{1-(4-Fluoro-phenyl)-2-[2-(1-formyl-4-guanidino-butylcarbamoyl)-pyrrolidin-1-yl]-2-oxo-ethyl}-carbamic acid tert-butyl ester] here?
A: Its IC50 is 91 µM.

Q: `CC(C)(C)OC(=O)N[C@@H](C(=O)N1CCC[C@H]1C(=O)NC(C=O)CCCNC(=N)N)c1cccc2ccccc12` (stereo not given in full) [{2-[2-(1-Formyl-4-guanidino-butylcarbamoyl)-pyrrolidin-1-yl]-1-naphthalen-1-yl-2-oxo-ethyl}-carbamic acid tert-butyl ester] was tested. Which IC50 did it give?
A: Its IC50 is 20 µM.

Q: How did the IC50 turn out when `CC(C)(C)OC(=O)N[C@@H](C(=O)N1CCC[C@H]1C(=O)NC(C=O)CCCNC(=N)N)c1ccc2ccccc2c1` (stereo not given in full) [{2-[2-(1-Formyl-4-guanidino-butylcarbamoyl)-pyrrolidin-1-yl]-1-naphthalen-2-yl-2-oxo-ethyl}-carbamic acid tert-butyl ester] was run?
A: Its IC50 is 12 µM.

Source: BindingDB's records for doi:10.1021/jm00055a002 (Eli Lilly, 1993)
